The values that follow come from patent US20250059220A1, “SUBSTITUTED BENZOTHIOPHENE DERIVATIVES AND METHODS OF USE THEREOF” (Merck Sharp & Dohme LLC, priority 2021, published 2025).

The target of one experiment is human PTPN1 (1-435) (Homo sapiens (Human), UniProt P18031). As to the kind of experiment: Human PTPN1 Biochemical Assay. To be noted: DiFMUP substrate, read-out: PTP1B IC50. Put shortly:
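Read-out is DiFMUP hydrolysis fluorescence (360 nm excitation, 460 nm emission) after 1 h at room temperature, following 30 min enzyme–compound preincubation.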

For the next experiment, the target named is human PTPN2 (1-387) (Homo sapiens (Human), UniProt P17706). Description: Human PTPN2 Biochemical Assay. Particulars: DiFMUP substrate. The method in brief: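 Fluorogenic DiFMUP hydrolysis (1 h, room temperature, read ex 360/em 460 nm) after 30 min compound preincubation with PTPN2 residues 1-387, in 50 mM Tris pH 7.4, 150 mM NaCl, 0.01% Tween20, 0.5 mM DTT. Effects scaled between buffer and enzyme controls, 4-parameter fit gives EC50.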
Chain of human PTPN2 (1-387) (P17706 other isoform, or with tags, fused parts or gaps): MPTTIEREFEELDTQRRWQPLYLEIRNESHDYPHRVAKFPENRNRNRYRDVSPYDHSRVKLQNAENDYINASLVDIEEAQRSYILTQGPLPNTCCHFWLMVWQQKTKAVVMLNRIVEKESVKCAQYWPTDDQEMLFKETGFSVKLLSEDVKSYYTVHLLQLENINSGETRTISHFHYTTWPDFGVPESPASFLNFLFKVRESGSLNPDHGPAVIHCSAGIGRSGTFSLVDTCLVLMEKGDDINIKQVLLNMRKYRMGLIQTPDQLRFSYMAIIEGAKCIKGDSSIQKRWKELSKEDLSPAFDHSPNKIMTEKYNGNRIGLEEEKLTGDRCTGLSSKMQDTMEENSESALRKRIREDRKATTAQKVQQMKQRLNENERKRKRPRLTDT

Chain of human PTPN1 (1-435) (P18031 whole entry): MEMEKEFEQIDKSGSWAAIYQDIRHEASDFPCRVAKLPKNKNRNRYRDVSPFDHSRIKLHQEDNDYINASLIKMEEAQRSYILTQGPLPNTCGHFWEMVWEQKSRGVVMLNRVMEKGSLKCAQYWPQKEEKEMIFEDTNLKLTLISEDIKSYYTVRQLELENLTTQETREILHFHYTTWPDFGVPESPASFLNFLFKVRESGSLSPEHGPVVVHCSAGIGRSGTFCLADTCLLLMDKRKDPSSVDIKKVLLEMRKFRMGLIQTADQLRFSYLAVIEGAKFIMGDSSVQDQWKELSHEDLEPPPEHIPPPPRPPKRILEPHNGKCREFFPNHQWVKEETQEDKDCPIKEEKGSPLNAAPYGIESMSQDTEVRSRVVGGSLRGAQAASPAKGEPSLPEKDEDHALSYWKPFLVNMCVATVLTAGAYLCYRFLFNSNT

As to `O=C1CCC(CNC(=O)c2ccc3sc(C(F)(F)P(=O)(O)O)c(Br)c3c2)N1` (stereo not shown) [Compound 136], the concentration for half-maximal inhibition (IC50) was found to be 3760 nM at human PTPN1 (1-435) and 4250 nM on human PTPN2 (1-387).

For the molecule `Cc1ccc(CNC(=O)c2ccc3sc(C(F)(F)P(=O)(O)O)c(Br)c3c2)nn1` [Compound 137], the IC50 came to 1090 nM on human PTPN1 (1-435) and 1420 nM at human PTPN2 (1-387).

As for `CC(NC(=O)c1ccc2sc(C(F)(F)P(=O)(O)O)c(Br)c2c1)c1cncnc1` (stereo not shown) [Compound 138], the figures for the IC50 at human PTPN1 (1-435) and against human PTPN2 (1-387) were 2080 nM and 2910 nM, respectively.

`O=C(NCc1ncn[nH]1)c1ccc2sc(C(F)(F)P(=O)(O)O)c(Br)c2c1` [Compound 139]: the IC50 is 1300 nM on human PTPN1 (1-435) and 1490 nM against human PTPN2 (1-387).

Regarding `O=C(NCc1c[nH]nn1)c1ccc2sc(C(F)(F)P(=O)(O)O)c(Br)c2c1` [Compound 140], the IC50 at human PTPN1 (1-435) is 1480 nM; against human PTPN2 (1-387), 1810 nM.

Consider `Cn1cncc1CNC(=O)c1ccc2sc(C(F)(F)P(=O)(O)O)c(Br)c2c1` [Compound 141], for which the IC50 is 2320 nM at human PTPN1 (1-435) and 3720 nM against human PTPN2 (1-387).

As to `O=C(NCc1cn2ccccc2n1)c1ccc2sc(C(F)(F)P(=O)(O)O)c(Br)c2c1` [Compound 142], the values for the IC50 at human PTPN1 (1-435) and against human PTPN2 (1-387) were 2640 nM and 1870 nM, respectively.

Take `O=C(NCCn1cnnc1)c1ccc2sc(C(F)(F)P(=O)(O)O)c(Br)c2c1` [Compound 143]: the IC50 at human PTPN1 (1-435) is 4340 nM; against human PTPN2 (1-387) it was 6140 nM.

As for `O=C(NCCn1cccn1)c1ccc2sc(C(F)(F)P(=O)(O)O)c(Br)c2c1` [Compound 144], the IC50 at human PTPN1 (1-435) was 1410 nM; on human PTPN2 (1-387), 7170 nM.

Regarding `CC(Cn1cncn1)NC(=O)c1ccc2sc(C(F)(F)P(=O)(O)O)c(Br)c2c1` (stereo not shown) [Compound 145], the IC50 worked out at 4590 nM on human PTPN1 (1-435) and 6980 nM at human PTPN2 (1-387).

Turning to `O=C(NCCn1cncn1)c1ccc2sc(C(F)(F)P(=O)(O)O)c(Br)c2c1` [Compound 146], the IC50 amounted to 3650 nM on human PTPN1 (1-435) and 7470 nM on human PTPN2 (1-387).

For `O=C(NCCn1ccnn1)c1ccc2sc(C(F)(F)P(=O)(O)O)c(Br)c2c1` [Compound 147], the IC50 at human PTPN1 (1-435) is 3190 nM; against human PTPN2 (1-387) it was 5660 nM.

As for `CC(Cn1ccnc1)NC(=O)c1ccc2sc(C(F)(F)P(=O)(O)O)c(Br)c2c1` (stereo not shown) [Compound 148], the IC50 on human PTPN1 (1-435) was determined as 5270 nM; on human PTPN2 (1-387), 5940 nM.

`Cc1cnn(CCNC(=O)c2ccc3sc(C(F)(F)P(=O)(O)O)c(Br)c3c2)c1` [Compound 149]: the IC50 at human PTPN1 (1-435) was found to be 3130 nM; at human PTPN2 (1-387), 6010 nM.

As to `O=C(NCCn1nncc1-c1ccccc1)c1ccc2sc(C(F)(F)P(=O)(O)O)c(Br)c2c1` [Compound 150], the IC50 at human PTPN1 (1-435) was 2590 nM; against human PTPN2 (1-387), 6280 nM.

As for `CC(CC1C=Nc2ccc(F)cc21)NC(=O)c1ccc2sc(C(F)(F)P(=O)(O)O)c(Br)c2c1` (stereo not shown) [Compound 151], the IC50 was 2740 nM at human PTPN1 (1-435) and 5980 nM at human PTPN2 (1-387).

`COc1ccc2c(c1)C(CC(C)NC(=O)c1ccc3sc(C(F)(F)P(=O)(O)O)c(Br)c3c1)C=N2` (stereo not shown) [Compound 152]: the figures for the IC50 at human PTPN1 (1-435) and at human PTPN2 (1-387) were 4410 nM and 8220 nM, respectively.

For `O=C(NCCc1c[nH]c2ccccc12)c1ccc2sc(C(F)(F)P(=O)(O)O)c(Br)c2c1` [Compound 153], the IC50 is 3160 nM at human PTPN1 (1-435) and 1950 nM on human PTPN2 (1-387).

Regarding `COc1ccc2[nH]cc(CCNC(=O)c3ccc4sc(C(F)(F)P(=O)(O)O)c(Br)c4c3)c2c1` [Compound 154], the IC50 on human PTPN1 (1-435) is 1520 nM; at human PTPN2 (1-387), 2770 nM.

As for `Cn1cc(CCNC(=O)c2ccc3sc(C(F)(F)P(=O)(O)O)c(Br)c3c2)c2ccccc21` [Compound 155], the values for the IC50 at human PTPN1 (1-435) and on human PTPN2 (1-387) were 2380 nM and 2160 nM, respectively.

For the molecule `O=C(NCCn1ccc2ccccc21)c1ccc2sc(C(F)(F)P(=O)(O)O)c(Br)c2c1` [Compound 156], the half-maximal inhibitory concentration (IC50) at human PTPN1 (1-435) was 1790 nM; against human PTPN2 (1-387), 902 nM.

For the molecule `O=C(NCCSC(F)(F)F)c1ccc2sc(C(F)(F)P(=O)(O)O)c(Br)c2c1` [Compound 157], the values for the IC50 at human PTPN1 (1-435) and on human PTPN2 (1-387) were 2380 nM and 5250 nM, respectively.

As to `O=C(NC(c1cccnc1)C(F)(F)F)c1ccc2sc(C(F)(F)P(=O)(O)O)c(Br)c2c1` (stereo not shown) [Compound 158], the IC50 amounted to 1450 nM at human PTPN1 (1-435) and 456 nM against human PTPN2 (1-387).

With `O=C(NCc1c[nH]nn1)c1cc(Cl)c2sc(C(F)(F)P(=O)(O)O)c(Br)c2c1` [Compound 159], the IC50 was determined as 251 nM on human PTPN1 (1-435) and 470 nM at human PTPN2 (1-387).

Take `O=C(NCc1cccnn1)c1cc(Cl)c2sc(C(F)(F)P(=O)(O)O)c(Br)c2c1` [Compound 160]: the IC50 on human PTPN1 (1-435) came to 315 nM; against human PTPN2 (1-387), 546 nM.

In the case of `N#Cc1cc(C(=O)NCc2cccnn2)cc2c(Br)c(C(F)(F)P(=O)(O)O)sc12` [Compound 161], the figures for the IC50 at human PTPN1 (1-435) and against human PTPN2 (1-387) were 446 nM and 344 nM, respectively.

Regarding `N#Cc1cc(C(=O)NCc2c[nH]nn2)cc2c(Br)c(C(F)(F)P(=O)(O)O)sc12` [Compound 162], the half-maximal inhibitory concentration (IC50) at human PTPN1 (1-435) came out at 244 nM; on human PTPN2 (1-387), 222 nM.

In the case of `COc1cc(C(=O)NCc2cccnn2)cc2c(Br)c(C(F)(F)P(=O)(O)O)sc12` [Compound 163], the IC50 turned out to be 436 nM on human PTPN1 (1-435) and 301 nM at human PTPN2 (1-387).

With `O=C(NCc1cccnn1)c1cc(F)c2sc(C(F)(F)P(=O)(O)O)c(Br)c2c1` [Compound 164], the IC50 at human PTPN1 (1-435) came to 361 nM; against human PTPN2 (1-387), 435 nM.

On to `O=C(NCc1c[nH]nn1)c1cc(F)c2sc(C(F)(F)P(=O)(O)O)c(Br)c2c1` [Compound 165], for which the IC50 stood at 675 nM at human PTPN1 (1-435) and 390 nM against human PTPN2 (1-387).

Consider `O=C(NCc1cccnn1)c1cc(O)c2sc(C(F)(F)P(=O)(O)O)c(Br)c2c1` [Compound 166], for which the figures for the IC50 at human PTPN1 (1-435) and at human PTPN2 (1-387) were 3160 nM and 3600 nM, respectively.

Take `O=C(NCc1c[nH]nn1)c1cc(O)c2sc(C(F)(F)P(=O)(O)O)c(Br)c2c1` [Compound 167]: the half-maximal inhibitory concentration (IC50) stood at 3560 nM on human PTPN1 (1-435) and 3070 nM on human PTPN2 (1-387).

Regarding `NC(=O)c1cc(OCCCC(F)(F)F)c2sc(C(F)(F)P(=O)(O)O)c(Br)c2c1` [Compound 168], the IC50 at human PTPN1 (1-435) was 28.2 nM; on human PTPN2 (1-387), 29.7 nM.

In the case of `CC(C)(O)CCOc1cc(C(N)=O)cc2c(Br)c(C(F)(F)P(=O)(O)O)sc12` [Compound 170], the 50% inhibitory concentration (IC50) on human PTPN1 (1-435) worked out at 518 nM; against human PTPN2 (1-387) it was 636 nM.

For the molecule `N#Cc1c(C(F)(F)P(=O)(O)O)sc2ccc(C(=O)NCc3ncn[nH]3)cc12` [Compound 171], the IC50 at human PTPN1 (1-435) was determined as 2180 nM; on human PTPN2 (1-387), 1470 nM.

Take `N#Cc1c(C(F)(F)P(=O)(O)O)sc2ccc(C(=O)NCc3cccnn3)cc12` [Compound 172]: the IC50 on human PTPN1 (1-435) stood at 663 nM; against human PTPN2 (1-387), 581 nM.

As to `N#Cc1c(C(F)(F)P(=O)(O)O)sc2ccc(C(=O)NCc3c[nH]nn3)cc12` [Compound 173], the results for the IC50 on human PTPN1 (1-435) and against human PTPN2 (1-387) were 738 nM and 578 nM, respectively.

Consider `O=C(NCc1ncc[nH]1)c1ccc2sc(C(F)(F)P(=O)(O)O)c(Br)c2c1` [Compound 174], for which the IC50 was 8610 nM on human PTPN1 (1-435) and 4140 nM at human PTPN2 (1-387).

On to `CC(NC(=O)c1ccc2sc(C(F)(F)P(=O)(O)O)c(Br)c2c1)c1nncn1C` (stereo not shown) [Compound 175], for which the figures for the 50% inhibitory concentration (IC50) on human PTPN1 (1-435) and on human PTPN2 (1-387) were 1420 nM and 2020 nM, respectively.

In the case of `C[C@@H](NC(=O)c1ccc2sc(C(F)(F)P(=O)(O)O)c(Br)c2c1)c1ccnn1C` [Compound 176], the IC50 on human PTPN1 (1-435) is 2680 nM; against human PTPN2 (1-387) it was 4720 nM.

As to `CCC(NC(=O)c1ccc2sc(C(F)(F)P(=O)(O)O)c(Br)c2c1)c1cccnc1` (stereo not shown) [Compound 177], the IC50 came out at 839 nM on human PTPN1 (1-435) and 2070 nM at human PTPN2 (1-387).
